Experimental data reported in patent publication US4395405A, “Alkyl-ketohexopyranoside derivatives and method of use” (Hisamitsu Pharmaceutical Co., Inc., priority 1979, dated 1983).

What was measured:
IgE antibodies [1] = experiment: Formation of homocytotropic antibodies in rats, PCA (passive cutaneous anaphylaxis) reaction; format: in vivo, rats of wistar strain; conditions: Table 3 right half, hypodermic administration; serum 8 days after sensitization; control 269.2 (218.8-331.1)
Method: (§1) Effects on the formation of homocytotropic antibodies in rats
(§2) An experiment was carried out in accordance with the Tada and Okumura's method (J. Immunol., Vol. 106, p 1002, 1971).
(§3) Groups each consisting of 8-9 rats of wistar strain were used in this experiment.
(§4) As shown in Tables 2-5, to the four legs of the rats were injected 1 mg of dinitrophenylated extract of ascaris suum (DNP-As) as protein and 10^10 cells of vaccinum pertussis (B. Pertussis) for sensitization, after which the compounds of this invention were administered to the injected rats for 5 days. Eight to nine days after the sensitization, bloodletting was effected on these rats to collect their serum for estimating the amount of antibodies formed using passive cutaneous anaphylaxis (PCA) reactions and phytohemaglutinin (PHA) reactions.
(1) Estimation of the amount of antibodies by PCA reaction:
The collected serum was diluted in various concentrations and intradermally injected to other rats. Forty-eight (48) hours after the injection, 2 mg of DNP-As as protein and 0.5 ml of a 1% Evans Blue were intravenously injected into these rats to determine the dilution of the serum which induced the minimum extravasted dye. It should be noted that the symbols "*" and "**" in the following Tables indicate significant differences at risks of 5% and 1%, respectively. […]

IgG and IgM [2] = experiment: Amount of antibodies formed in rats, PHA (phytohemaglutinin) reaction; format: in vivo, rats of wistar strain; conditions: Table 5 right half, hypodermic administration; serum 8 days after sensitization; control 3235.9 (2454.7-4265.8)
Method: as §1, §2, §3, §4
(2) Estimation of the amount of antibodies by PHA reaction:
The collected serum was diluted in various concentrations and incubated with sheep red blood cells coupled with DNP-As using bis-diazoated benzydine to determine the dilution of the serum which induced the minimum hemaglutination. […]

IgE antibodies [3] = experiment: Formation of homocytotropic antibodies in mice, PCA reaction; format: in vivo, mice (BALB/c strain), female; conditions: 100 mg/Kg/day for 5 days
Method: The collected serum was diluted in various concentrations and intradermally injected to other rats. Forty-eight (48) hours after the injection, 2 mg of DNP-As as protein and 0.5 ml of a 1% Evans Blue were intravenously injected into these rats to determine the dilution of the serum which induced the minimum extravasted dye. It should be noted that the symbols "*" and "**" in the following Tables indicate significant differences at risks of 5% and 1%, respectively.
(§5) Effects on the formation of homocytotropic antibodies in mice
(§6) Groups each consisting of 5 female mice (BALB/c strain) were used in this experiment. The mice were sensitized with 10 μg of DNP-As as protein and 3 mg of Al(OH)3, after which the test compound was administered to the sensitized mice for 5 days (at a dose of 100 mg/Kg/day). After the sensitization, a sample of serum was collected from the mice and treated in the same manner as in Experiment 1 to determine the amount of antibodies formed. […]

[4] = Acute poisoning test on mice; conditions: mouse, in vivo, three weeks
Method: (§7) Each of the test compounds was suspended in a physiological solution of sodium chloride containing 0.5% of tragacanth gum to obtain a test suspension. The test suspensions so obtained were administered to rats and mice in various ways. LD50 was calculated from test animals which died in three weeks after the start of the test.

[5] = Acute poisoning test on rats; conditions: rat, in vivo, three weeks
Method: as §7

IgG and IgM [6] = experiment: Amount of antibodies formed in mice, PHA reaction; format: in vivo, mice (BALB/c strain), female; conditions: 100 mg/Kg/day for 5 days
Method: The collected serum was diluted in various concentrations and incubated with sheep red blood cells coupled with DNP-As using bis-diazoated benzydine to determine the dilution of the serum which induced the minimum hemaglutination.
as §5, §6

In the case of `CC(C)COC1(CO)OCC(O)C(O)C1O` [Compound No. 10, isobutyl-α-L-sorbopyranoside], the “PCA of rat: dilution of the serum which induced the minimum extravasted dye” value (IgE antibodies [1]) is reported as 177.8 (134.9-234.4), the “PHA of rat: dilution of the serum which induced the minimum hemaglutination” value (IgG and IgM [2]) is reported as 5248.1 (3715.4-7413.1) and the “PCA of mice (serum dilution)” value (IgE antibodies [3]; Table 7, oral, serum 10 days after sensitization, control 537.0 (436.5-660.7)) is reported as 501.2. For the same compound, the “PCA of mice (serum dilution)” value (IgE antibodies [3]; Table 8, hypodermic, serum 9 days after, control 708.0 (575.4-871.0)) was 537.0, the “PCA of mice (serum dilution)” value (IgE antibodies [3]; Table 8, hypodermic, serum 10 days after, control 537.0 (380.2-758.6)) was 708.0 and the “PCA of mice (serum dilution)” value (IgE antibodies [3]; Table 8, hypodermic, serum 37 days after, control 2818.4 (1862.1-4265.8)) was 1513.6. For the same compound, the LD50 at 504 h ([4]; ip, abdominally, female) was 500 to 1000 mg/kg, the LD50 at 504 h ([4]; ip, abdominally, male) was 500 to 1000 mg/kg and the LD50 at 504 h ([4]; iv, intravenously, female) was 1000 to 2000 mg/kg. The LD50 at 504 h ([4]; iv, intravenously, male) was 1000 to 2000 mg/kg, the LD50 at 504 h ([4]; po, orally, female) was 2000 to 5000 mg/kg and the LD50 at 504 h ([4]; po, orally, male) was 2000 to 5000 mg/kg. For the same compound, the LD50 at 504 h ([4]; sc, hypodermically, female) was about 2000 mg/kg, the LD50 at 504 h ([4]; sc, hypodermically, male) was about 2000 mg/kg and the LD50 at 504 h ([5]; ip, abdominally, female) was about 2000 mg/kg. The LD50 at 504 h ([5]; ip, abdominally, male) was about 2000 mg/kg, the LD50 at 504 h ([5]; iv, intravenously, female) was 1000 to 2000 mg/kg and the LD50 at 504 h ([5]; iv, intravenously, male) was 1000 to 2000 mg/kg. The LD50 at 504 h ([5]; po, orally, female) was over 5000 mg/kg, the LD50 at 504 h ([5]; po, orally, male) was over 5000 mg/kg and the LD50 at 504 h ([5]; sc, hypodermically, female) was over 5000 mg/kg. The LD50 at 504 h ([5]; sc, hypodermically, male) was over 5000 mg/kg, the “PHA of mice (serum dilution)” value (IgG and IgM [6]; Table 10, oral, serum 10 days after, control 125.9 (95.5-166.0)) was 109.7 and the “PHA of mice (serum dilution)” value (IgG and IgM [6]; Table 11, hypodermic, serum 9 days after, control 380.2 (269.2-537.0)) was 154.9 (125.9-190.6). The “PHA of mice (serum dilution)” value (IgG and IgM [6]; Table 11, hypodermic, serum 10 days after, control 109.7 (95.5-125.9)) was 102.3 (83.2-125.9) and the “PHA of mice (serum dilution)” value (IgG and IgM [6]; Table 11, hypodermic, serum 37 days after, control 1071.5 (871.0-1318.3)) was 1148.2 (933.3-1412.5).
